IC50 data for 35 molecules are collected here from patent US11518758B2, “Heteroarylaminopyrimidine amide autophagy inhibitors and methods of use thereof” (Deciphera Pharmaceuticals, LLC, priority 2019, dated 2022).

One experiment deals with T1, ULK1 kinase (Homo sapiens, UniProt O75385).
T1 construct: purchased Eurofins 14-959
T1 sequence (O75385 with tags, fused parts or gaps): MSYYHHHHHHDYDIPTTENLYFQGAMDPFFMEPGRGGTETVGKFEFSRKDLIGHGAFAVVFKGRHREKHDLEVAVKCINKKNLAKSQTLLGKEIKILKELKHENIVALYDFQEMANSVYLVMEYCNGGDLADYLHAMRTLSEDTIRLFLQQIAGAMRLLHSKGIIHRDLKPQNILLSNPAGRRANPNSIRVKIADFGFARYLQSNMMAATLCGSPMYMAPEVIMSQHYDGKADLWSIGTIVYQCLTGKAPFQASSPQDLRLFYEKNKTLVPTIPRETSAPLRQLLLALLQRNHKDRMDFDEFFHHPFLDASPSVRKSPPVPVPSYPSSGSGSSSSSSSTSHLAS
Briefly: Biochemical assay for ULK1.2 (coupled pyruvate kinase/lactate dehydrogenase assay). Conditions: 19 nM ULK1 (Eurofins), myelin basic protein, 1 mM ATP. On the procedure: Example 174. Biochemical Assay for ULK1.2
Activity of ULK1 kinase was determined spectroscopically using a coupled pyruvate kinase/lactate dehydrogenase assay that continuously monitors the ATP hydrolysis-dependent oxidation of NADH (e.g., Schindler et al. Science (2000) 289: 1938-1942). Assays were conducted in 384-well plates (100 uL final volume) using 19 nM ULK1 (Eurofins CAT #14-959), 0.25 mg/mL myelin basic protein, 1.5 units pyruvate kinase, 2.1 units lactate dehydrogenase, 1 mM phosphoenol pyruvate, 0.28 mM NADH and 1 mM ATP in assay buffer (100 mM Tris, pH 7.5, 15 mM MgCl2, 0.5 mM DTT, 0.1% octyl-glucoside, 0.002% (w/v) BSA, and 0.002% Triton X-100). Inhibition of ULK1 was measured by adding serial diluted test compound (final assay concentration of 1% DMSO). A decrease in absorption at 340 nm was monitored continuously for 6 hours at 30° C. on a multi-mode microplate reader (BioTek). The reaction rate was calculated using the 2-3 h time frame. The reaction rate at each concentration of compound was converted to percent inhibition using controls (i.e. reaction with no test compound and reaction with a known inhibitor) and IC50 values were calculated by fitting a four-parameter sigmoidal curve to the data using Prism (GraphPad software).

In experiment [1] the test system is phospho-Serine 318 ATG13 (pATG13), ULK kinase substrate, in A549 (KRAS mutant) cells. Nature of the experiment: pATG13 levels of mutant KRas A549 cells after treatment with ULK inhibitors in combination with trametinib (ELISA). The experiment is classed as cell-based, human. Conditions: with 250 nM trametinib. Here is the method: Example 177. Cellular Inhibition of ULK Kinase Substrate ATG13 Protein pATG13 Levels of Mutant KRas A549 Cells after Treatment with ULK Inhibitors in Combination with Trametinib
A549 (KRAS mutant) human lung cancer cells (6,000 cells/well) were added to a 384-well tissue-culture treated plate in 50 μL of pre-warmed DMEM medium supplemented with 10% characterized fetal bovine serum (Invitrogen, Carlsbad, Calif.), 100 units/mL penicillin G, and 100 μg/mL streptomycin and allowed to grow overnight at 37° C., 5% CO2, and 95% humidity. The following day, 10 μL of media containing trametinib or DMSO as a control was added to wells. The final concentration of trametinib in wells was 250 nM. A dose response of a test compound (0.6 μL per well) was added. DMSO (0.6 μL) was added to control wells. The plate was briefly shaken to mix wells and then incubated at 37° C. overnight. The next day, the media was aspirated and cells were washed with Dulbecco's Phosphate Buffered Saline (Gibco). Cells were lysed using MPER lysis buffer (Pierce, Rockford, Ill.) containing Halt Phosphatase and Protease Inhibitors (Pierce, Rockford, Ill.) and Phosphatase inhibitor cocktail 2 (Sigma, St. Louis, Mo.) at 4° C. for 10 minutes with shaking.
Cellular levels of phospho-Serine 318 ATG13 (pATG13) were measured via an ELISA method. Total ATG13 Antibody (Cell Signaling Cat #13273) was used to coat the wells. The plate was incubated at 4° C. overnight and washed with ELISA wash buffer (Biolegend Cat #421601). The wells were then blocked with assay diluent (Biolegend Cat #421203) for 1 hour at room temperature. Plate wells were washed with ELISA wash buffer. Cell lysate was added to wells and incubated at room temperature for 2 hours. Plate wells were washed with ELISA wash buffer. Biotinylated pS318-ATG13 antibody (Rockland Immunochemicals Cat #600-401-C49) was diluted in assay diluent and added to each well and incubated at room temperature for 1 hour. Plate wells were washed with ELISA wash buffer. Streptavidin linked to horseradish peroxidase (Thermo Fisher Cat #21140) was diluted in assay diluent and added to each well and incubated at room temperature for 1 hour. Plate wells were washed with ELISA wash buffer. High sensitivity TMB substrate (Biolegend Cat #421101) was added to each well and incubated at room temperature for 20 minutes. The reaction was stopped with 2N Sulfuric Acid. The plate was analyzed at on a plate reader measuring absorbance at 450 nm and 540 nm (background). Signal was calculated by first subtracting the background absorbance at 540 nm from the absorbance at 450 nm for each well. Next, the background corrected absorbance at 450 nm from blank wells was subtracted from test wells. Data was compared to control wells to determine % ATG13 phosphorylation. GraphPad Prism was used to calculate IC50 values.
Background: ELISA stands for enzyme-linked immunosorbent assay.

`CC(C)CN1CC(n2cc(Nc3ncc(Br)c(NCCCN4CCCCC4=O)n3)cn2)C1` [Example 17]: the results for the IC50 (against ULK1 kinase; in experiment [1]) were 25 to 100 nM and 100 to 300 nM, respectively.

For `CCN1CCC(n2cc(Nc3ncc(C(F)(F)F)c(NCCCN4CCCCCC4=O)n3)c(C)n2)CC1` [Example 90, 1-(3-((2-((1-(1-ethylpiperidin-4-yl)-3-methyl-1H-pyrazol-4-yl)amino)-5-(trifluoromethyl)pyrimidin-4-yl)amino)propyl)azepan-2-one], the IC50 against ULK1 kinase lay in the range of 1 to 25 nM; in experiment [1], 10 to 100 nM.

Take `CC(C)CN1CC(n2cc(Nc3ncc(C(F)(F)F)c(NCCCN4CCCCC4=O)n3)cn2)C1` [Example 12]: the IC50 at ULK1 kinase lay within 25 to 100 nM; in experiment [1] it was 300 to 600 nM.

Take `CCC(C)N1CCC(n2cc(Nc3ncc(C(F)(F)F)c(NCCCN4CCCCCC4=O)n3)c(C)n2)CC1` (stereo not drawn) [Example 94]: the IC50 against ULK1 kinase was in the range of 1 to 25 nM; in experiment [1], 10 to 100 nM.

Take `Cc1nn(C2CCN(C3CCCC3)CC2)cc1Nc1ncc(C(F)(F)F)c(NCCCN2CCCCCC2=O)n1` [Example 93]: the IC50 against ULK1 kinase lay in the range of 1 to 25 nM.

`Cc1nn(CCCN2CCCCC2)cc1Nc1ncc(C(F)(F)F)c(NCCCN2CCCCC2=O)n1` [Example 28]: on ULK1 kinase, the IC50 lay within 25 to 100 nM.

With `CC(C)N1CCC(n2cc(Nc3ncc(C(F)(F)F)c(NCCCN4CCOCC4=O)n3)cn2)CC1` [Example 74], the values for the IC50 (against ULK1 kinase; in experiment [1]) were 25 to 100 nM and greater than 600 nM, respectively.

Consider `Cc1nn(C2CCNCC2)cc1Nc1ncc(I)c(NCCCN2CCCCC2=O)n1` [Example 48], for which the values for the IC50 (at ULK1 kinase; in experiment [1]) were 1 to 25 nM and greater than 600 nM, respectively.

For the molecule `CCc1nn(C2CCN(C(C)C)CC2)cc1Nc1ncc(C(F)(F)F)c(NCCCN2CCCCC2=O)n1` [Example 43], the IC50 against ULK1 kinase lay in the range of 25 to 100 nM.

On ULK1 kinase, `Cc1nn([C@H]2CCNC2)cc1Nc1ncc(C(F)(F)F)c(NCCCN2CCCCC2=O)n1` [Example 65] displayed a concentration for half-maximal inhibition (IC50) of 1 to 25 nM.

In the case of `CCN1CCC(n2cc(Nc3ncc(Cl)c(NCCCN4CCCCC4=O)n3)c(C)n2)CC1` [Example 58], the IC50 at ULK1 kinase was 100 to 500 nM; in experiment [1] it was 300 to 600 nM.

In the case of `Cc1nn([C@@H]2CCN(C)C2)cc1Nc1ncc(Cl)c(NCCCN2CCCC2=O)n1` [Example 160], the 50% inhibitory concentration (IC50) at ULK1 kinase was greater than 500 nM.

For the molecule `Cc1nn(C2CN(CC(C)C)C2)cc1Nc1ncc(Br)c(NCCCN2CCCC2=O)n1` [Example 154], the IC50 on ULK1 kinase was greater than 500 nM.

`Cc1nn(C2CN(CC(C)C)C2)cc1Nc1ncc(Cl)c(NCCCN2CCCC2=O)n1` [Example 161] registered an IC50 against ULK1 kinase greater than 500 nM.

`[2H]C([2H])([2H])N1CCC(n2cc(Nc3ncc(Cl)c(NCCCN4CCCCC4=O)n3)c(C)n2)CC1` [Example 57] came in with a half-inhibitory concentration (IC50) at ULK1 kinase of 100 to 500 nM.

`CCN1CCC(n2cc(Nc3ncc(Br)c(NCCCN4CCCCC4=O)n3)c(C)n2)CC1` [Example 50] yielded an IC50 on ULK1 kinase of 25 to 100 nM.

On ULK1 kinase, `CCc1nn(C2CCN(CC)CC2)cc1Nc1ncc(Cl)c(NCCCN2CCCCC2=O)n1` [Example 46] came in with an IC50 of 100 to 500 nM.

With `[2H]C([2H])([2H])N1CCC(n2cc(Nc3ncc(C(F)(F)F)c(NCCCN4CCCCC4=O)n3)c(C)n2)CC1` [Example 31], the IC50 lay in the range of 1 to 25 nM against ULK1 kinase and 100 to 300 nM in experiment [1].

`CCN1CCC(n2cc(Nc3ncc(C(F)(F)F)c(NCCCN4CCCCC4=O)n3)c(C)n2)CC1` [Example 37] displayed an IC50 against ULK1 kinase of 1 to 25 nM.

For `Cc1nn([C@H]2CCNC2)cc1Nc1ncc(C(F)(F)F)c(NCCCN2CCCC2=O)n1` [Example 167], the IC50 against ULK1 kinase was in the range of 100 to 500 nM.

With `[2H]C([2H])([2H])N1CCC(n2cc(Nc3ncc(C(F)(F)F)c(NCCCN4CCCCC4=O)n3)c(CC)n2)CC1` [Example 52], the IC50 on ULK1 kinase lay within 1 to 25 nM.

As to `[2H]C([2H])([2H])C([2H])(N1CCC(n2cc(Nc3ncc(C(F)(F)F)c(NCCCN4CCCCC4=O)n3)cn2)CC1)C([2H])([2H])[2H]` [Example 13], the IC50 against ULK1 kinase is 1 to 25 nM; in experiment [1] it was 100 to 300 nM.

On to `Cc1nn(CCN2CCOCC2)cc1Nc1ncc(Cl)c(NCCCN2CCCC2=O)n1` [Example 163], for which, on ULK1 kinase, the IC50 is greater than 500 nM.

On to `O=C1CCCCN1CCCNc1nc(Nc2cnn(C3CCN(CC4CC4)CC3)c2)ncc1Cl` [Example 3], for which the IC50 is 1 to 25 nM against ULK1 kinase and 10 to 100 nM in experiment [1].

The molecule `Cc1nn(C2CCN(C3CCC3)CC2)cc1Nc1ncc(C(F)(F)F)c(NCCCN2CCCCCC2=O)n1` [Example 92] came in with an IC50 against ULK1 kinase of 1 to 25 nM.

For `Cc1nn([C@@H]2CCNC2)cc1Nc1ncc(C(F)(F)F)c(NCCCN2CCCCC2=O)n1` [Example 34], the 50% inhibitory concentration (IC50) at ULK1 kinase is 1 to 25 nM.

For the molecule `Cc1nn(CCCN2CCCC2)cc1Nc1ncc(C(F)(F)F)c(NCCCN2CCCCC2=O)n1` [Example 20], the IC50 was 25 to 100 nM on ULK1 kinase and 100 to 300 nM in experiment [1].

Consider `Cc1nn(C2CCN(C)CC2)cc1Nc1ncc(C(F)(F)F)c(NCCCN2CCN(C)C2=O)n1` [Example 152], for which the IC50 is 25 to 100 nM against ULK1 kinase and 100 to 300 nM in experiment [1].

Take `CN1CCC(n2cc(Nc3ncc(C(F)(F)F)c(NCCCN4CCCCC4=O)n3)cn2)CC1` [Example 10]: the IC50 at ULK1 kinase lay in the range of 1 to 25 nM.

With `O=C1CCCCN1CCCNc1nc(Nc2cnn(C3CCNCC3)c2)ncc1Br` [Example 9], the IC50 against ULK1 kinase is 1 to 25 nM; in experiment [1] it was greater than 600 nM.

Take `Cc1nn([C@@H]2CCN(C)C2)cc1Nc1ncc(Cl)c(NCCCN2CCOCCC2=O)n1` [Example 134]: on ULK1 kinase, the concentration for half-maximal inhibition (IC50) is 100 to 500 nM.

Regarding `CCc1nn(C2CCN(C)CC2)cc1Nc1ncc(C(F)(F)F)c(NCCCN2CCCCC2=O)n1` [Example 47], the IC50 against ULK1 kinase lay in the range of 1 to 25 nM.

`Cc1nn(CCN2CCOCC2)cc1Nc1ncc(Br)c(NCCCN2CCCCC2=O)n1` [Example 63] came in with an IC50 against ULK1 kinase greater than 500 nM.

On ULK1 kinase, `CCc1nn(C2CCN(CC)CC2)cc1Nc1ncc(C(F)(F)F)c(NCCCN2CCCCC2=O)n1` [Example 42] displayed an IC50 of 25 to 100 nM.

`Cc1nn(CCN2CCCCC2)cc1Nc1ncc(C(F)(F)F)c(NCCCN2CCCCC2=O)n1` [Example 22] registered an IC50 against ULK1 kinase of 100 to 500 nM.

In general, IC50 refers to the concentration that gives 50% inhibition.
